In patent publication US9751840B2, “R-7-(3-aminomethyl-4-methoxyimino-3-methyl-pyrrolidin-1-yl)-1-cyclopropyl-6-fluoro-4-oxo-acid and L-aspartic acid salt, process for the preparation thereof and pharmaceutical composition comprising the same for antimicrobial” (ARIBIO CO. LTD., priority 2009, dated 2017):
In brackets after ≈: the same amount, converted by molar mass.

What was measured:
Solubility test = assay type: physicochemical; conditions: room temperature, water
[1] = Stability test in distilled water; assay type: physicochemical; conditions: 30 mg in 100 ml distilled water
Male ICR mice = assay: Single dose toxicity in mice (LD50); conditions: single intraperitoneal dose, observed 14 days
Description: The following experiment was performed in order to observe the degree of toxicity of the L-aspartate according to the present invention.
Male ICR mice were used as experimental animals. 5 male ICR mice were divided into 6 dose groups, respectively and fasted except for water for 24 hours.

CON=C1CN(c2nc3c(cc2F)c(=O)c(C(=O)O)cn3C2CC2)C[C@@]1(C)CN.Cc1ccc(S(=O)(=O)O)cc1
solubility (Solubility test): 5.78 mg/mL | Content (%) 60? (after 3 weeks) [1]: 87.3% | Content (%) Initial [1]: 98.6% | Content (%) Room temperature (after 3 weeks) [1]: 98.1%

CON=C1CN(c2nc3c(cc2F)c(=O)c(C(=O)O)cn3C2CC2)C[C@@]1(C)CN.O=CO [Formate (Comparative Example 5)]
solubility (Solubility test): 27.5 mg/mL | Content (%) 60? (after 3 weeks) [1]: 75.1% | Content (%) Initial [1]: 89.7% | Content (%) Room temperature (after 3 weeks) [1]: 89.7%

CON=C1CN(c2nc3c(cc2F)c(=O)c(C(=O)O)cn3C2CC2)C[C@@]1(C)CN [Free form (Comparative Example 2)]
solubility (Solubility test): 2.79 mg/mL (≈ 6.92 mM) | Content (%) 60? (after 3 weeks) [1]: 34.6% | Content (%) Initial [1]: 97.3% | Content (%) Room temperature (after 3 weeks) [1]: 96.8%

CON=C1CN(c2nc3c(cc2F)c(=O)c(C(=O)O)cn3C2CC2)C[C@@]1(C)CN.CS(=O)(=O)O [Methanesulfonate (Comparative Example 4)]
solubility (Solubility test): 99.1 mg/mL | Content (%) 60? (after 3 weeks) [1]: 89.6% | Content (%) Initial [1]: 96.4% | Content (%) Room temperature (after 3 weeks) [1]: 96.8%

CON=C1CN(c2nc3c(cc2F)c(=O)c(C(=O)O)cn3C2CC2)C[C@@]1(C)CN.O=P(O)(O)O [Phosphate (Comparative Example 6)]
Lethal dose 50 (Male ICR mice): 176 mg/kg | solubility (Solubility test): 57.8 mg/mL | Content (%) 60? (after 3 weeks) [1]: 91.2% | Content (%) Initial [1]: 98.1% | Content (%) Room temperature (after 3 weeks) [1]: 97.9%
